Assay results from patent publication US20230000870A1, “METHODS OF TREATING CANCER IN BIOMARKER-IDENTIFIED PATIENTS WITH INHIBITORS OF CYCLIN-DEPENDENT KINASE 7 (CDK7)” (Syros Pharmaceuticals, Inc., priority 2019, published 2023).

Columns and labels:
[1] = target: T1, CDK12 (aa686-1082)/Cyclin K complex (Homo sapiens, UniProt Q9NYV4); assay: CDK12 kinase inhibition assay (Caliper/LabChip EZ Reader); assay type: biochemical; details: CDK12 (aa686-1082)/Cyclin K 50 nM, ATP 2 mM, 3 hr at 27° C.
T1 construct: CDK12 (aa686-1082)/Cyclin K complex
Outline: (§1)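 Incubation times were set for ~20% (±5%) peptide phosphorylation by uninhibited enzyme: CDK7 35 min, CDK2 35 min (0.5 nM complex, 2 μM 5-FAM-CDK7tide, 2 mM MgCl2), CDK12 3 hr (50 nM, 2 μM 5-FAM-CDK9tide, 2 mM MgCl2), CDK9 15 min (8 nM, 2 μM 5-FAM-CDK9tide, 10 mM MgCl2). Read-out on LabChip EZ Reader, 27° C.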

[2] = target: CDK9/Cyclin T1 complex (Homo sapiens, UniProt P50750); assay: CDK9 kinase inhibition assay (Caliper/LabChip EZ Reader); assay type: biochemical; details: CDK9/Cyclin T1 8 nM, ATP 2 mM, 15 min at 27° C.
Outline: as §1

[3] = target: CDK2/Cyclin E1 complex (Homo sapiens, UniProt P24941); assay: CDK2 kinase inhibition assay (Caliper/LabChip EZ Reader); assay type: biochemical; details: CDK2/Cyclin E1 0.5 nM, ATP 2 mM, 35 min at 27° C.
Outline: as §1

[4] = tested on: HCC70 cells; assay: Inhibition of proliferation of HCC70 cells (CyQUANT Direct, 72 hour); assay type: cell-based, human; details: read-out: Inhibition of Proliferation of HCC70 Cells (calculated IC50)
Description: HCC70 cells: HCC70 cells are a cell line derived from human triple negative breast cancer. Representative compounds of the invention were tested at different concentrations (from 4 μM to […]; 0.5 log serial dilutions) for their ability to inhibit the proliferation of HCC70 cells. Known CDK inhibitors dinaciclib or N-((1S,3R)-3-((5-chloro-4-(1H-indol-3-yl) pyrimidin-2-yl)amino)cyclohexyl)-5-((E)-4-(dimethylamino)but-2-enamido)picolinamide and triptolide were used as positive controls. Cells were grown in ATCC-formulated RPMI-1640 Medium (ATCC 30-2001)+10% FBS. The cells were cultured at 37° C. in a humidified chamber in the presence of 5% CO2. Proliferation assays were conducted over a 72 hour time period. CyQUANT® Direct Cell Proliferation Assay (Life Technologies, Chicago, Ill. USA) was used to assess the anti-proliferative effects of the compounds following manufacturer's directions and utilizing the reagents supplied with the CyQUANT® Direct Cell kit.

[5] = target: CDK7/Cyclin H/MAT1 complex (Homo sapiens, UniProt P50613); assay: CDK7 kinase inhibition assay (Caliper/LabChip EZ Reader); assay type: biochemical; details: CDK7/Cyclin H/MAT1 6 nM, ATP 2 mM, 35 min at 27° C.
Outline: as §1

Sequence of CDK9/Cyclin T1 complex (P50750 whole entry): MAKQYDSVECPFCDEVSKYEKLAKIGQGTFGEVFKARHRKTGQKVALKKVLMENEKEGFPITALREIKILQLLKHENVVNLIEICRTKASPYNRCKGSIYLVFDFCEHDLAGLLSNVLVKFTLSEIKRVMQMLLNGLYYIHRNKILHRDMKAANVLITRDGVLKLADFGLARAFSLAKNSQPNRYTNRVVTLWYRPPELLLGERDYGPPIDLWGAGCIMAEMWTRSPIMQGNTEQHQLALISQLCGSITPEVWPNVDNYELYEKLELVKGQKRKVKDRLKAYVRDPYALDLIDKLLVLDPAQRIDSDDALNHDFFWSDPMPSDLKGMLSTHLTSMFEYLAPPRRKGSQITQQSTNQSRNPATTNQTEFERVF
Sequence of CDK9/Cyclin T1 complex (O60563 whole entry partner): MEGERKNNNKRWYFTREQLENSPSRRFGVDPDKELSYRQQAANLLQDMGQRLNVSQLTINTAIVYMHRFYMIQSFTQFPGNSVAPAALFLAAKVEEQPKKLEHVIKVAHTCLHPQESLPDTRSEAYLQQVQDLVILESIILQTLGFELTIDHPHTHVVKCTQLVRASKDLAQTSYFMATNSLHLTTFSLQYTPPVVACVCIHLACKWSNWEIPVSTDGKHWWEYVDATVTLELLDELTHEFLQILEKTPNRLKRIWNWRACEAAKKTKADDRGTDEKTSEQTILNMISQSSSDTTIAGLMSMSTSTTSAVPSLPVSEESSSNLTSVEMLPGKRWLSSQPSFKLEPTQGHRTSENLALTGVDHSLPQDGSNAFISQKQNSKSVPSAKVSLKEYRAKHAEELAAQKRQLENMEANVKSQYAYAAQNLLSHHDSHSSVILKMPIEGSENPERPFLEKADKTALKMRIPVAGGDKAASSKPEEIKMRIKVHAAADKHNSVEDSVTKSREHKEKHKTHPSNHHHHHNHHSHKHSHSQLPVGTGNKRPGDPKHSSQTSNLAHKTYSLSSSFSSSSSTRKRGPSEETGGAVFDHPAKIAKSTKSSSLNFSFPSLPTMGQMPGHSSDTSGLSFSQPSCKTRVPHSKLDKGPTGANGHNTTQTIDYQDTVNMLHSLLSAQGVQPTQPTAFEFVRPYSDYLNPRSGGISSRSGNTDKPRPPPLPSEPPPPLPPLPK
T1 sequence (Q9NYV4 686-1082): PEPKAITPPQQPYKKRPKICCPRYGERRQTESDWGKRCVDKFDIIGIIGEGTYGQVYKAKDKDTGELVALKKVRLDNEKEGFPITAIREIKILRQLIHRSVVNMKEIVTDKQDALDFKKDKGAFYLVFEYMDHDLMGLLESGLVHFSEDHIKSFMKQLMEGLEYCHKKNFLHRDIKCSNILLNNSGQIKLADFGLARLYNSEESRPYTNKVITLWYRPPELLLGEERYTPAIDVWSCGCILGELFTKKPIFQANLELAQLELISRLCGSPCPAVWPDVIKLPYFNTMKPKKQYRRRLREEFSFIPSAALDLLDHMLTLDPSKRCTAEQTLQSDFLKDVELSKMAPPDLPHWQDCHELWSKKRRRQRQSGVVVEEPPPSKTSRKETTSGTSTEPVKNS
T1 sequence (O75909 whole entry partner, the tested form may be a part): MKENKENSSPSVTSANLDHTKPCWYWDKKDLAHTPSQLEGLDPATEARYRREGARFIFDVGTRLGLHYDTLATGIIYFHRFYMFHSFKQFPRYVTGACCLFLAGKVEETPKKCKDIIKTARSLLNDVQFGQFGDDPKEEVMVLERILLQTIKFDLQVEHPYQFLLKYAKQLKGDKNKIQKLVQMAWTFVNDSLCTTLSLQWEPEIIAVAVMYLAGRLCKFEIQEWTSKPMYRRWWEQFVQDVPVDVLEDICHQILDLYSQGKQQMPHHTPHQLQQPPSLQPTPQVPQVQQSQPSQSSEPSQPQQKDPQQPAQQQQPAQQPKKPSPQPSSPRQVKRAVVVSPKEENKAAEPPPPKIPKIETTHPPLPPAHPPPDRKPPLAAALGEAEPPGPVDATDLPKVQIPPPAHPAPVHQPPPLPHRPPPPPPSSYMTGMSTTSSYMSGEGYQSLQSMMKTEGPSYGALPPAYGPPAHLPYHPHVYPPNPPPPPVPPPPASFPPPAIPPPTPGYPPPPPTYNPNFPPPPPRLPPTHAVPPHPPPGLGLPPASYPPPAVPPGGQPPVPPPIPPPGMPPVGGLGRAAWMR
Sequence of CDK7/Cyclin H/MAT1 complex (P50613 whole entry): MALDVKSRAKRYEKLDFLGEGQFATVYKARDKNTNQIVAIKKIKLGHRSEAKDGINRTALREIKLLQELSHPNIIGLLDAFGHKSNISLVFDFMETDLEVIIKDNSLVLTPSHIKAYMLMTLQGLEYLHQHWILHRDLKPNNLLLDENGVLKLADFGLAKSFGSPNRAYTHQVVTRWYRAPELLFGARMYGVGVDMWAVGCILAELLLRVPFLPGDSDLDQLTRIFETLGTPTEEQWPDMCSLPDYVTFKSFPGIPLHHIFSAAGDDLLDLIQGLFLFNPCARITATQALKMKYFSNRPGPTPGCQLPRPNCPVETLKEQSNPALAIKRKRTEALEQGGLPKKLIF
Sequence of CDK7/Cyclin H/MAT1 complex (P51946 whole entry partner): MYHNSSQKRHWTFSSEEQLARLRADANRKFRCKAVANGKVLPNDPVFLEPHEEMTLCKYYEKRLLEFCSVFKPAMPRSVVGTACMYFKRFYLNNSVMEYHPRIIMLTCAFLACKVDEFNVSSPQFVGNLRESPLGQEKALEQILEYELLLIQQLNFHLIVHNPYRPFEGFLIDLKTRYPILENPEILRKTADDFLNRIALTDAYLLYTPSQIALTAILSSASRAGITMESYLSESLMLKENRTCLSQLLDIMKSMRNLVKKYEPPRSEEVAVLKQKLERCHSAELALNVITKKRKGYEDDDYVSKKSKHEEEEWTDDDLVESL
Sequence of CDK7/Cyclin H/MAT1 complex (P51948 whole entry partner): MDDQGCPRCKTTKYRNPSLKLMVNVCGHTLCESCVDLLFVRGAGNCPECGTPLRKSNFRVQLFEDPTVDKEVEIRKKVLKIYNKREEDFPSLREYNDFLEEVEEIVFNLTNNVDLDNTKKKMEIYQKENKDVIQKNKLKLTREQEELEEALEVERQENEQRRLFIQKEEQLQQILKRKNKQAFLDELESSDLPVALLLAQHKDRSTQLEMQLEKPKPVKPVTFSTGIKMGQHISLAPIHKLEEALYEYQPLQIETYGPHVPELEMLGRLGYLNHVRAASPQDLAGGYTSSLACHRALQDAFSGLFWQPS

Structure (SMILES)	IC50 [1]	IC50 [2]	IC50 [3]	IC50 [4]	IC50 [5]
COC1CCN(C(=O)c2ccc3c(-c4nc(NC5CCCNC5)ncc4C(F)(F)F)c[nH]c3c2)C1 (centres unmarked) [Compound 280]	200 to 5000 nM	≥ 5000 nM	≥ 5000 nM	100 to 1000 nM	20 to 200 nM
COC1CCN(C(=O)c2ccc3c(-c4nc(NC5CCCNC5)ncc4C(F)(F)F)c[nH]c3c2)C1 (centres unmarked) [Compound 281]	200 to 5000 nM	200 to 5000 nM	200 to 5000 nM	100 to 1000 nM	< 20 nM
CC1(O)CCN(C(=O)c2ccc3c(-c4nc(N[C@H]5CCCNC5)ncc4C(F)(F)F)c[nH]c3c2)CC1 [Compound 282]	200 to 5000 nM	≥ 5000 nM	200 to 5000 nM	100 to 1000 nM	< 20 nM
N#CC1CCN(C(=O)c2ccc3c(-c4nc(NC5CCCNC5)ncc4C(F)(F)F)c[nH]c3c2)C1 (centres unmarked) [Compound 293]	200 to 5000 nM	200 to 5000 nM	200 to 5000 nM	100 to 1000 nM	< 20 nM
CS(=O)(=O)c1c(C#N)ccc2c(-c3nc(NC4CCCNC4)ncc3Cl)c[nH]c12 (centres unmarked) [Compound 294]	200 to 5000 nM	200 to 5000 nM	200 to 5000 nM	< 100 nM	< 20 nM
COCn1cc(-c2nc(NC3CCCNC3)ncc2C(F)(F)F)c2cccc(C#N)c21 (centres unmarked) [Compound 295]	≥ 5000 nM	≥ 5000 nM	≥ 5000 nM	1000 to 5000 nM	20 to 200 nM
Cn1cc(-c2nc(NC3CCCNC3)ncc2C(F)(F)F)c2cccc(S(C)(=O)=O)c21 (centres unmarked) [Compound 296]	≥ 5000 nM	≥ 5000 nM	≥ 5000 nM	1000 to 5000 nM	20 to 200 nM
CNC(=O)c1ccc2c(-c3nc(NC4CCCNC4)ncc3C(F)(F)F)c[nH]c2n1 (centres unmarked) [Compound 297]	200 to 5000 nM	200 to 5000 nM	200 to 5000 nM	< 100 nM	< 20 nM
CCN1CCCC(Nc2ncc(C(F)(F)F)c(-c3c[nH]c4cc(S(C)(=O)=O)ccc34)n2)C1 (centres unmarked) [Compound 298]	200 to 5000 nM	≥ 5000 nM	200 to 5000 nM	100 to 1000 nM	< 20 nM
O=C(c1ccc2c(-c3nc(NC4CCCNC4)ncc3C(F)(F)F)c[nH]c2c1)N1CCC(O)(C(F)(F)F)C1 (centres unmarked) [Compound 299]	200 to 5000 nM	200 to 5000 nM	200 to 5000 nM	1000 to 5000 nM	< 20 nM
O=C(c1ccc2c(-c3nc(NC4CCCNC4)ncc3C(F)(F)F)c[nH]c2c1)N1CCC(O)(C(F)(F)F)C1 (centres unmarked) [Compound 300]	200 to 5000 nM	200 to 5000 nM	200 to 5000 nM	100 to 1000 nM	< 20 nM
N#Cc1ccc2c(-c3nc(NC4CCCNC4)ncc3OC(F)F)c[nH]c2c1 (centres unmarked) [Compound 301]	≥ 5000 nM	≥ 5000 nM	≥ 5000 nM	1000 to 5000 nM	20 to 200 nM
O=C1CCN(C(=O)c2ccc3c(-c4nc(NC5CCCNC5)ncc4C(F)(F)F)c[nH]c3c2)C1 (centres unmarked) [Compound 302]	200 to 5000 nM	200 to 5000 nM	200 to 5000 nM	100 to 1000 nM	20 to 200 nM
Cn1ccc(-c2ccc3c(-c4nc(NC5CCCNC5)ncc4C(F)(F)F)c[nH]c3c2)n1 (centres unmarked) [Compound 303]	200 to 5000 nM	200 to 5000 nM	200 to 5000 nM	100 to 1000 nM	< 20 nM
CNC(=O)c1cccc2c(-c3nc(NC4CCCNC4)ncc3C(F)(F)F)cn(COC)c12 (centres unmarked) [Compound 304]	≥ 5000 nM	≥ 5000 nM	≥ 5000 nM	1000 to 5000 nM	≥ 5000 nM
FC(F)(F)Sc1cnc(NC2CCCNC2)nc1-c1c[nH]c2ccccc12 (centres unmarked) [Compound 305]	200 to 5000 nM	200 to 5000 nM	200 to 5000 nM	1000 to 5000 nM	< 20 nM
O=C(O)c1ccc2c(-c3nc(NC4CCCNC4)ncc3C(F)(F)F)c[nH]c2c1 (centres unmarked) [Compound 306]	200 to 5000 nM	≥ 5000 nM	200 to 5000 nM	100 to 1000 nM	20 to 200 nM

Structure (SMILES)	IC50 [1]	IC50 [2]	IC50 [3]	IC50 [4]	IC50 [5]
CNC(=O)c1cccc2c(-c3nc(NC4CCCNC4)ncc3C(F)(F)F)cn(C)c12 (centres unmarked) [Compound 307]	≥ 5000 nM	≥ 5000 nM	≥ 5000 nM	1000 to 5000 nM	≥ 5000 nM
O=C(c1ccc2c(-c3nc(NC4CCCNC4)ncc3C(F)(F)F)c[nH]c2c1)N1CC(O)C(F)(F)C1 (centres unmarked) [Compound 308]	200 to 5000 nM	200 to 5000 nM	200 to 5000 nM	100 to 1000 nM	< 20 nM
CCC1(O)CCN(C(=O)c2ccc3c(-c4nc(NC5CCCNC5)ncc4C(F)(F)F)c[nH]c3c2)C1 (centres unmarked) [Compound 309]	200 to 5000 nM	≥ 5000 nM	≥ 5000 nM	1000 to 5000 nM	20 to 200 nM
Oc1ncccc1-c1ccc2c(-c3nc(NC4CCCNC4)ncc3C(F)(F)F)c[nH]c2c1 (centres unmarked) [Compound 310]	200 to 5000 nM	≥ 5000 nM	200 to 5000 nM	100 to 1000 nM	< 20 nM
Cc1c(-c2ccc3c(-c4nc(NC5CCCNC5)ncc4C(F)(F)F)c[nH]c3c2)c[nH]c(=O)c1C#N (centres unmarked) [Compound 311]	200 to 5000 nM	200 to 5000 nM	200 to 5000 nM	1000 to 5000 nM	< 20 nM
N#Cc1cc(-c2ccc3c(-c4nc(NC5CCCNC5)ncc4C(F)(F)F)c[nH]c3c2)ccc1O (centres unmarked) [Compound 315]	200 to 5000 nM	–	–	1000 to 5000 nM	20 to 200 nM
FC(F)(F)c1cnc(N[C@H]2CCCNC2)nc1-c1c[nH]c2cc(/C=C/c3ccccc3)ccc12 [Compound 317]	200 to 5000 nM	–	–	1000 to 5000 nM	20 to 200 nM
FC(F)(F)c1cc2[nH]cc(-c3ccc4c(-c5nc(N[C@H]6CCCNC6)ncc5C(F)(F)F)c[nH]c4c3)c2cn1 [Compound 319]	200 to 5000 nM	–	–	1000 to 5000 nM	20 to 200 nM
Cn1cc(-c2ccc3c(-c4nc(N[C@H]5CCCNC5)ncc4C(F)(F)F)c[nH]c3c2)c2cnc(C(F)(F)F)cc21 [Compound 320]	200 to 5000 nM	–	–	1000 to 5000 nM	20 to 200 nM
Nc1ncc2cccc(-c3ccc4c(-c5nc(NC6CCCNC6)ncc5C(F)(F)F)c[nH]c4c3)c2n1 (centres unmarked) [Compound 322]	200 to 5000 nM	–	–	100 to 1000 nM	< 20 nM
OCCc1cccc(-c2ccc3c(-c4nc(NC5CCCNC5)ncc4C(F)(F)F)c[nH]c3c2)c1 (centres unmarked) [Compound 324]	200 to 5000 nM	–	–	100 to 1000 nM	20 to 200 nM
FC(F)(F)c1cnc(N[C@H]2CCCNC2)nc1-c1c[nH]c2cc(-c3ccc4ccncc4c3)ccc12 [Compound 325]	200 to 5000 nM	–	–	100 to 1000 nM	20 to 200 nM
NS(=O)(=O)c1cccc(-c2ccc3c(-c4nc(NC5CCCNC5)ncc4C(F)(F)F)c[nH]c3c2)c1 (centres unmarked) [Compound 326]	200 to 5000 nM	–	–	100 to 1000 nM	20 to 200 nM
CCOc1ccccc1-c1ccc2c(-c3nc(NC4CCCNC4)ncc3C(F)(F)F)c[nH]c2c1 (centres unmarked) [Compound 327]	200 to 5000 nM	–	–	100 to 1000 nM	20 to 200 nM
NS(=O)(=O)c1ccc(-c2ccc3c(-c4nc(N[C@H]5CCCNC5)ncc4C(F)(F)F)c[nH]c3c2)cc1 [Compound 331]	200 to 5000 nM	–	–	100 to 1000 nM	20 to 200 nM
Cn1ncc2ccc(-c3ccc4c(-c5nc(NC6CCCNC6)ncc5C(F)(F)F)c[nH]c4c3)cc21 (centres unmarked) [Compound 337]	200 to 5000 nM	–	–	100 to 1000 nM	20 to 200 nM
